# Where two headings read alike, the source gives them in different places.
# Experiments:
# [1] = tested on: Onchocerca gutturosa adult male worms; test: O. gutturosa adult male worm 5-day motility assay
# [2] = tested on: Onchocerca gutturosa adult male worms; test: O. gutturosa adult worm MTT/formazan viability assay; details: 120 h
# [3] = tested on: Onchocerca lienalis microfilariae; test: O. lienalis microfilariae 5-day motility assay; details: 120 h
# Brugia pahangi [4] = details: cited from earlier work
# Breinlia booliati = tested on: Breinlia booliati; parameters: method as in Mak 1981 (Ref. 7); details: 100L3 (SC), rats, SC 3mg/kg 5 cons. days, patent phase, necropsy 4 weeks p.t.; ref Mak 1981 (Ref. 7); cited from earlier work
# Brugia pahangi [5] = tested on: Brugia pahangi; parameters: method as in de Burbure 1986 (Ref. 9); details: 200L3 (SC), Mastomys, food 56-82mg/kg, 7 days p.i., necropsy 177 days p.t., ref de Burbure 1986 (Ref. 9), cited from earlier work
# [6] = tested on: Acanthocheilonema viteae / Brugia pahangi; parameters: method as in Court 1988 (Ref. 10); details: 15Ad A.v. (SC) +15Ad B.p. (IP), jirds, 5 days p.i., necropsy 5 weeks p.t., ref Court 1988 (Ref. 10), cited from earlier work
# Litomosoides sigmodontis [7] = tested on: Litomosoides sigmodontis; parameters: method as in Reddy 1983 (Ref. 15); details: L3 (mite), Mastomys natalensis, patent phase, necropsy 43 days p.t., ref Reddy 1983 (Ref. 15), cited from earlier work
# Brugia pahangi [8] = tested on: Brugia pahangi; parameters: method as in Reddy 1983 (Ref. 15); details: L3 (SC), Mastomys natalensis, patent phase, necropsy 43 days p.t., ref Reddy 1983 (Ref. 15), cited from earlier work
# Litomosoides sigmodontis [9] = test: Patent L. sigmodontis infection in jirds (adult worms, microfilaremia, embryogenesis); details: jirds, SC 2 mg/kg QD for 5 days
smiles,measurement,setting,value
COC(=O)Nc1nc2cc(C(=O)c3ccc(F)cc3)ccc2[nH]1 [flubendazole],Motility Reduction (%),"[1]; 1.25 x 10^-5 M, 24 h",10%
same,Motility Reduction (%),"[1]; 1.25 x 10^-5 M, 48 h",12%
same,Motility Reduction (%),"[1]; 1.25 x 10^-5 M, 72 h",33%
same,Motility Reduction (%),"[1]; 1.25 x 10^-5 M, 96 h",44%
same,Motility Reduction (%),"[1]; 1.25 x 10^-5 M, 120 h",51%
same,Motility Reduction (%),"[1]; 3.1 x 10^-6 M, 24 h",4%
same,Motility Reduction (%),"[1]; 3.1 x 10^-6 M, 48 h",5%
same,Motility Reduction (%),"[1]; 3.1 x 10^-6 M, 72 h",16%
same,Motility Reduction (%),"[1]; 3.1 x 10^-6 M, 96 h",38%
same,Motility Reduction (%),"[1]; 3.1 x 10^-6 M, 120 h",40%
same,Motility Reduction (%),"[1]; 5.0 x 10^-5 M, 24 h",23%
same,Motility Reduction (%),"[1]; 5.0 x 10^-5 M, 48 h",22%
same,Motility Reduction (%),"[1]; 5.0 x 10^-5 M, 72 h",36%
same,Motility Reduction (%),"[1]; 5.0 x 10^-5 M, 96 h",38%
same,Motility Reduction (%),"[1]; 5.0 x 10^-5 M, 120 h",54%
same,Motility Reduction (%),"[1]; 7.8 x 10^-7 M, 24 h",6%
same,Motility Reduction (%),"[1]; 7.8 x 10^-7 M, 48 h",9%
same,Motility Reduction (%),"[1]; 7.8 x 10^-7 M, 72 h",13%
same,Motility Reduction (%),"[1]; 7.8 x 10^-7 M, 96 h",33%
same,Motility Reduction (%),"[1]; 7.8 x 10^-7 M, 120 h",26%
same,MTT Reduction (%),[2]; 1.25 x 10^-5 M,2%
same,MTT Reduction (%),[2]; 3.1 x 10^-6 M,3%
same,MTT Reduction (%),[2]; 5.0 x 10^-5 M,20%
same,MTT Reduction (%),[2]; 7.8 x 10^-7 M,3%
same,activity against microfilariae compared to oxfendazole,[3],even less active
same,Reduction of worm burden,"Brugia pahangi [4]; 15Ad (IP), jirds, SC 0.7mg/kg 5 cons. days, ref Denham 1979 (Ref. 4)",40%
same,Reduction of worm burden,"Brugia pahangi [4]; 15Ad (IP), jirds, SC 3.1mg/kg x1, ref Denham 1979 (Ref. 4)",23%
same,Reduction of worm burden,"Brugia pahangi [4]; 15Ad (IP), jirds, SC 5mg/kg 5 cons. days, 4 days p.i., necropsy 5 weeks p.t., ref Surin 1990 (Ref. 11)",100%
same,Reduction of worm burden,"Brugia pahangi [4]; 15Ad (IP), jirds, SC 6.3-12.5 mg/kg x1, ref Denham 1979 (Ref. 4)",70-80%
same,Reduction of worm burden,"Brugia pahangi [4]; 15Ad (IP), jirds, SC 10-50-100mg/ml 5 cons. days, ref Denham 1979 (Ref. 4)",96-100%
same,Reduction of worm burden,"Brugia pahangi [4]; 15Ad (IP), jirds, SC 25-200mg/kg x1, ref Denham 1979 (Ref. 4)",>98%
same,Reduction of worm burden,"Brugia pahangi [4]; 50L3 (IP), jirds, SC 5mg/kg 5 cons. days, 70 days p.i., necropsy 5 weeks p.t., ref Surin 1990 (Ref. 11)",98.5%
same,Reduction of worm burden,"Brugia pahangi [4]; 50L3 (IP), jirds, SC 25mg/kg 5 cons. days, 70 days p.i., necropsy 5 weeks p.t., ref Surin 1990 (Ref. 11)",100%
same,Reduction of worm burden,"Brugia pahangi [4]; 50L3 (IP), jirds, SC 25mg/kg x1, prepatent phase, necropsy 3-9 days p.t., ref Denham 1979 (Ref. 4)",no reduction
same,Reduction of worm burden,"Brugia pahangi [4]; 50L3 (IP), jirds, SC 25mg/kg x1, prepatent phase, necropsy 12-24 days p.t., ref Denham 1979 (Ref. 4)",80%
same,Reduction of worm burden,"Brugia pahangi [4]; 50L3 (IP), jirds, SC 25mg/kg x1, prepatent phase, necropsy 27-36 days p.t., ref Denham 1979 (Ref. 4)",100%
same,Reduction of worm burden,"Brugia pahangi [4]; prophylactic, 15Ad (IP), jirds, SC 100mg/kg x1, 2,3,4,5 weeks bef. i., necropsy 35 days pi, ref Denham 1980 (Ref. 1)",100%
same,Reduction of worm burden,"Brugia pahangi [4]; prophylactic, 15Ad (IP), jirds, SC 100mg/kg x1, 6,9,12 weeks bef. i., necropsy 35 days pi, ref Denham 1980 (Ref. 1)",92-100%
same,Reduction of worm burden,"Brugia pahangi [4]; prophylactic, 15Ad (IP), jirds, SC 100mg/kg x1, 24 weeks bef. i., necropsy 35 days pi, ref Denham 1980 (Ref. 1)",9%
same,Reduction of worm burden,"Brugia pahangi [4]; prophylactic, 15Ad (IP), jirds, SC 100mg/kg x1, 2 days bef. i., necropsy 35 days pi, ref Denham 1980 (Ref. 1)",100%
same,Reduction of worm burden,"Brugia pahangi [4]; prophylactic, 50L3, jirds, SC 25mg/kg x1, 137 days bef. i., necropsy 9-10 weeks p.t., ref Chusattayanond 1984 (Ref. 2)",8%
same,Reduction of worm burden,Breinlia booliati,100%
same,Reduction of worm burden,Brugia pahangi [5]; 7 days ad.lib.,100%
same,Reduction of worm burden,Brugia pahangi [5]; 14 days ad. lib.,100%
same,Reduction of worm burden,[6]; SC 50mg/kg 5 cons. days,50%
same,Reduction of worm burden,[6]; SC 100mg/kg 5 cons. days,100%
same,Reduction of worm burden,Litomosoides sigmodontis [7]; SC 100mg/kg 5 cons. days,100%
same,Reduction of worm burden,Litomosoides sigmodontis [7]; per os 150mg/kg 5 cons. days,0%
same,Reduction of worm burden,Brugia pahangi [8]; SC 100mg/kg 5 cons. days,100%
same,Reduction of worm burden,Brugia pahangi [8]; per os 150mg/kg 5 cons. days,20%
same,adult worms at necropsy,Litomosoides sigmodontis [9]; necropsy 16 weeks post-treatment,no adult worms were recovered
same,clearance of microfilariae from peripheral blood,Litomosoides sigmodontis [9]; week 4 after treatment start,all microfilariae were cleared

# Source: article PMC7365463, “Oxfendazole mediates macrofilaricidal efficacy against the filarial nematode Litomosoides sigmodontis in vivo and inhibits Onchocerca spec. motility in vitro” (PLoS Neglected Tropical Diseases, 2020)
